Measured values published in ChEMBL document CHEMBL2150849, “Sesquiterpenoids from the mangrove-derived endophytic fungus Diaporthe sp” (J Nat Prod, 2012).
Calls of active or inactive are those of the source.

Tests used:
Assay type in all cases: functional, cell-based
SGC-7901 = assay: Cytotoxicity against human SGC7901 cells at 20 uM by MTT assay
MCF7 = assay: Cytotoxicity against human MCF7 cells at 20 uM by MTT assay
A549 = assay: Cytotoxicity against human A549 cells at 20 uM by MTT assay
QGY7701 = assay: Cytotoxicity against human QGY7701 cells at 20 uM by MTT assay

Measured: Activity

CC1=C(CO)[C@@]2(C)CCC[C@@](C)(CO)[C@@H]2CC1=O
inactive: all assays above

CC1=C(CO)[C@@]2(C)CCCC(C)(C)[C@@H]2C[C@H]1O
inactive: all assays above

CC1(C)CCC[C@]2(C)[C@@H](C(=O)O)[C@](C)(O)CC[C@@H]12
inactive: all assays above

CC(C)(O)[C@]12CCC3=C(COC3=O)[C@@]1(C)CCC(=O)O2
inactive: all assays above

CC1(C)C(=O)CC[C@]2(C)[C@@H](CO)[C@](C)(O)CC[C@@]12O
inactive: all assays above

CC1=C[C@@H]2C[C@H](C)C[C@H](C)[C@H]2[C@](C)(C(=O)CCO)[C@@H]1C(=O)O
inactive: all assays above

CC1=C(CO)[C@@]2(C)CC[C@H](O)C(C)(C)[C@@H]2CC1=O
inactive: all assays above

CC1(C)[C@@H](O)CC[C@]2(C)C3=C(CC[C@@H]12)C(=O)OC3
inactive: all assays above

C[C@]1(CO)CCC[C@]2(C)[C@@H](CO)[C@](C)(O)CC[C@@H]12
inactive: all assays above

CC1(C)CC(=O)C[C@]2(C)[C@@H](CO)[C@](C)(O)CC[C@@H]12
inactive: all assays above

CC1=C(CO)[C@@]2(C)C[C@@H](O)CC(C)(C)[C@@H]2CC1=O
inactive: all assays above
